According to article PMC10455244, “Alpha-Mangostin: A Potent Inhibitor of TRPV3 and Pro-Inflammatory Cytokine Secretion in Keratinocytes” (International Journal of Molecular Sciences, 2023):

Target: T1, TRPV3 (G573S) (Homo sapiens, UniProt Q8NET8, G573S)
T1 construct: host or cells: HEK 293T (transient transfection, pEGFP-N1 co-transfected as a marker)
T1 sequence (Q8NET8 1-790 G573S): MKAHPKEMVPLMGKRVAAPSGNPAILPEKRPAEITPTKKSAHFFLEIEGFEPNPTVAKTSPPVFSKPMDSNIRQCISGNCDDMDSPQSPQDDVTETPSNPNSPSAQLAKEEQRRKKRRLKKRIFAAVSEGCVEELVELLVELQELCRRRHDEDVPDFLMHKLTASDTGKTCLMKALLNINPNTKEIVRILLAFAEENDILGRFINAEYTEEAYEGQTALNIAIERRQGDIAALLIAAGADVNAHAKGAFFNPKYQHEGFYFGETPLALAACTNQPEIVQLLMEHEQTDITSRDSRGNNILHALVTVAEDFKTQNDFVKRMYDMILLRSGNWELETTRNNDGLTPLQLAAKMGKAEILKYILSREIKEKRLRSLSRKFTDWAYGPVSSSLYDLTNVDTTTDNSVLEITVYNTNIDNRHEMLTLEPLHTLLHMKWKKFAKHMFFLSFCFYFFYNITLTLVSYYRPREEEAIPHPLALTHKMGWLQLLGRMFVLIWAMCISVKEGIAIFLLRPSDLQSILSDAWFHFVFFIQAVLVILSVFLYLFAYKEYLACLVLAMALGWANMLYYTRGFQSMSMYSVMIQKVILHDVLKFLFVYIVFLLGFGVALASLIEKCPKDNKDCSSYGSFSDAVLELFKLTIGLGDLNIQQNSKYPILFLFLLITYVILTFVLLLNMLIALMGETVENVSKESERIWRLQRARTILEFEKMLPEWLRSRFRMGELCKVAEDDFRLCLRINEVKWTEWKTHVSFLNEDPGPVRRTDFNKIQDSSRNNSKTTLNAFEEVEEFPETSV
Assay: Fura-2 calcium imaging, spontaneous Ca2+ increase in TRPV3 (G573S)-expressing HEK 293T cells
Assay type: cell-based
Conditions: 1 µM
From the text: Figure 4 Alpha-mangostin inhibited the activity of hyperactive TRPV3 mutant channels and rescued mutation-induced cell death. (A) Alpha-mangostin inhibited the channel current in representative TRPV3 (G573S)- and TRPV3 (G573C)-expressing HEK 293T cells. […] Currents were normalized to the response at −100 mV before adding alpha-mangostin. (C) Alpha-mangostin inhibited TRPV3-mediated intracellular calcium increase in TRPV3 (G573S)-expressing HEK 293T cells. […] The bar graph on the right summarizes the change in the intracellular calcium rise inhibited by alpha-mangostin. […]
Subsequently, the effects of alpha-mangostin on the activities of the mutated channels were further evaluated using intracellular calcium measurements.
Fura-2 AM (Thermo Fisher Scientific) was utilized as a fluorescent indicator to measure calcium signal, as described previously. […] To measure the cytosolic Ca^2+ level, a sequential excitation of Fura-2 is performed at 340 nm and 380 nm; then, the emission signals resulting from each excitation wavelength are measured and the ratio of these signals is calculated. […] Samples were excited using a wavelength of 380 nm for 20 ms, followed by 340 nm for 100 ms, and fluorescence at 510 nm was recorded. Recorded data were then analyzed using NIS-Element AR Version 5.00.00 (Nikon Instruments, Melville, NY, USA). […]

Structure (SMILES): COc1c(O)cc2oc3cc(O)c(CC=C(C)C)c(O)c3c(=O)c2c1CC=C(C)C [Alpha-mangostin]
- Effect on spontaneous intracellular calcium increase: potently attenuated
